# How the values were obtained:
# [1] = tested on: ID8 ovarian cancer cell line; experiment: MTT reduction assay, 4 h, rapid toxicity, ID8; type: cell-based; details: 4 h treatment; for Maximum Inhibition (%) ID8: MTT assay, ND = not detected or cannot be calculated
# Protocol: The compounds were tested between 0.001694 and 33.3333 µM, using a 4-hour-long MTT test to assess rapid toxicity and a 48-hour-long SRB assay to assess the long-term effects of the inhibition of proliferation (cytostasis). The MTT assay assesses the activity of mitochondrial complex I and detects rapid, direct toxicity, as well as indicating apoptosis and necrosis. The SRB assay measures the total protein content that is proportional to cell numbers; therefore, the assay can detect changes in cell numbers and can thus be used as a readout for cell proliferation. The SRB assay was performed after 48 h of treatment (with the exception of L428 cells, which were tested for 96 h due to their slower proliferation rate). In this setting, the SRB assay informs us of long-term changes to cell proliferation. We assessed the maximal inhibition within that concentration range, and descriptive statistics were performed. We performed a one-way ANOVA, followed by the Kruskal–Wallis test, regardless of the normal or non-normal distribution of the data. Due to the large number of significance values, the results of the significance calculations are provided in an Excel spreadsheet at https://figshare.com/s/28d14597d5041f08eb08 (accessed on 6 January 2022), among other primary data of the study. Where possible, nonlinear regression was performed on the curves to determine the IC50 values ((inhibitor) vs. response—variable slope (four parameters) method with Graphpad v8.0.1). […] In Table 5, we added the IC50 values that we determined for a set of 4 active ruthenium half-sandwich complexes we identified previously, to be used in subsequent structure-activity relationship (SAR) analyses.
# ID8 cells were cultured in a high-glucose DMEM (4.5 g/L glucose) medium, supplemented with 4% fetal calf serum, 2 mM glutamine, 1% penicillin-streptomycin, and 1% ITS supplement (I3146).
# The MTT reduction assay measures the activity of mitochondrial complex I and can be used to detect apoptosis and necrosis. The assay was performed similarly to the method used in [72]. Briefly, cells were plated in 96-well plates the day before the assay. Cells were treated with the compounds for 4 h, then MTT was added at 0.5 mg/mL final concentration and the cells were incubated at 37 °C in a cell incubator. The culture media were removed and the reduced MTT dye was dissolved in dimethyl-sulfoxide (DMSO) and plates were measured in a plate photometer (Thermo Scientific Multiscan GO spectrophotometer, Waltham, MA, USA) at 540 nm. On each plate, wells were designed to contain untreated/vehicle-treated cells. In the calculations, the readings for these wells were considered as 1 and all readings were expressed relative to these values.
# [2] = Determination of the distribution coefficients (logD), n-octanol/PBS; type: physicochemical; details: n-octanol / PBS pH = 7.40, rt
# Protocol: Before starting the experiments, n-octanol was saturated with an aqueous PBS solution (pH = 7.40) and vice versa. A solution of the appropriate complex (approximately 0.2–0.3 mg) in a mixture of 2.50 mL pre-saturated n-octanol and 2.50 mL pre-saturated PBS buffer was made, and the resulting mixture was then vigorously stirred for 3 days at rt. Based on our previous NMR stability experiments, this time is long enough to reach equilibrium among the various ionic complex species. Due to the lipophilic/hydrophilic features of the complexes, those with benzoyl protection could primarily be found in the n-octanol, while the complexes with O-peracetylated and O-deprotected ligands were in the aqueous PBS phase. The corresponding separated solution was centrifuged (ScanSpeed 406G instrument, 4000 RPM for 5 min) and the absorption of the ”stock solution” was determined (VWR UV-1600PC Spectrophotometer, 270–420 nm). Then, 2.00 mL of the stock solution was vigorously stirred with 16.00 mL of pre-saturated n-octanol or PBS solution. After one day had passed, the phases were separated, centrifuged, and the absorption of the solution was measured again. From the absorption difference of the stock solutions, the distribution coefficient (D) was determined using previously described formulae [71].
SMILES,"cytotoxicity on ID8 cells, MTT assay (in words) [1]",Maximum Inhibition (%) ID8 [1] [%],LogD [2]
Cc1c(C)c(C)[c-](C)c1C.F[P-](F)(F)(F)(F)F.O=C(OCC1OC(n2cc(-c3ccccn3)nn2)C(OC(=O)c2ccccc2)C(OC(=O)c2ccccc2)C1OC(=O)c1ccccc1)c1ccccc1.[Cl][Ir+2] (mixture of isomers) [Ir-6],mild cytotoxicity,62.71,2.36
Cc1ccc(C(C)C)cc1.F[P-](F)(F)(F)(F)F.O=C(OCC1OC(c2nnc(-c3ccccn3)o2)C(OC(=O)c2ccccc2)C(OC(=O)c2ccccc2)C1OC(=O)c1ccccc1)c1ccccc1.[Cl][Os+] (mixture of isomers) [Os-3],cytotoxic capacity to a greater extent than on A2780 cells,35.24,3.32
Cc1ccc(C(C)C)cc1.F[P-](F)(F)(F)(F)F.O=C(OCC1OC(c2nnc(-c3ccccn3)o2)C(OC(=O)c2ccccc2)C(OC(=O)c2ccccc2)C1OC(=O)c1ccccc1)c1ccccc1.[Cl][Os+] (mixture of isomers) [Os-4],–,22.91,2.87
Cc1ccc(C(C)C)cc1.F[P-](F)(F)(F)(F)F.O=C(OC1COC(c2nnc(-c3ccccn3)o2)C(OC(=O)c2ccccc2)C1OC(=O)c1ccccc1)c1ccccc1.[Cl][Os+] (mixture of isomers) [Os-5],cytotoxic capacity to a greater extent than on A2780 cells,59.51,2.36
Cc1ccc(C(C)C)cc1.F[P-](F)(F)(F)(F)F.O=C(OCC1OC(n2cc(-c3ccccn3)nn2)C(OC(=O)c2ccccc2)C(OC(=O)c2ccccc2)C1OC(=O)c1ccccc1)c1ccccc1.[Cl][Os+] (mixture of isomers) [Os-6],cytotoxic capacity to a greater extent than on A2780 cells,64.44,2.33

# Reference: PMC8776094, “Reactive Oxygen Species Production Is Responsible for Antineoplastic Activity of Osmium, Ruthenium, Iridium and Rhodium Half-Sandwich Type Complexes with Bidentate Glycosyl Heterocyclic Ligands in Various Cancer Cell Models” (International Journal of Molecular Sciences, 2022)
